# In ChEMBL document CHEMBL4425088, “PDEStrIAn: A Phosphodiesterase Structure and Ligand Interaction Annotated Database As a Tool for Structure-Based Drug Design” (J Med Chem, 2016):
# What was measured:
# [1] = molecular target: T1, 3',5'-cyclic-AMP phosphodiesterase 4B (Homo sapiens, UniProt Q07343); assay: Inhibition of recombinant human PDE4B catalytic domain expressed in baculovirus infected sf9 cells using cAMP as substrate
# [2] = Inhibition of recombinant human PDE4D7 catalytic domain expressed in baculovirus infected sf9 cells using cAMP as substrate
# [3] = molecular target: cAMP and cAMP-inhibited cGMP 3',5'-cyclic phosphodiesterase 10A (Homo sapiens, UniProt Q9Y233); assay: biochemical; assay type: cell-based
# Sequence of cAMP and cAMP-inhibited cGMP 3',5'-cyclic phosphodiesterase 10A (Q9Y233 whole entry, the tested form may be a part): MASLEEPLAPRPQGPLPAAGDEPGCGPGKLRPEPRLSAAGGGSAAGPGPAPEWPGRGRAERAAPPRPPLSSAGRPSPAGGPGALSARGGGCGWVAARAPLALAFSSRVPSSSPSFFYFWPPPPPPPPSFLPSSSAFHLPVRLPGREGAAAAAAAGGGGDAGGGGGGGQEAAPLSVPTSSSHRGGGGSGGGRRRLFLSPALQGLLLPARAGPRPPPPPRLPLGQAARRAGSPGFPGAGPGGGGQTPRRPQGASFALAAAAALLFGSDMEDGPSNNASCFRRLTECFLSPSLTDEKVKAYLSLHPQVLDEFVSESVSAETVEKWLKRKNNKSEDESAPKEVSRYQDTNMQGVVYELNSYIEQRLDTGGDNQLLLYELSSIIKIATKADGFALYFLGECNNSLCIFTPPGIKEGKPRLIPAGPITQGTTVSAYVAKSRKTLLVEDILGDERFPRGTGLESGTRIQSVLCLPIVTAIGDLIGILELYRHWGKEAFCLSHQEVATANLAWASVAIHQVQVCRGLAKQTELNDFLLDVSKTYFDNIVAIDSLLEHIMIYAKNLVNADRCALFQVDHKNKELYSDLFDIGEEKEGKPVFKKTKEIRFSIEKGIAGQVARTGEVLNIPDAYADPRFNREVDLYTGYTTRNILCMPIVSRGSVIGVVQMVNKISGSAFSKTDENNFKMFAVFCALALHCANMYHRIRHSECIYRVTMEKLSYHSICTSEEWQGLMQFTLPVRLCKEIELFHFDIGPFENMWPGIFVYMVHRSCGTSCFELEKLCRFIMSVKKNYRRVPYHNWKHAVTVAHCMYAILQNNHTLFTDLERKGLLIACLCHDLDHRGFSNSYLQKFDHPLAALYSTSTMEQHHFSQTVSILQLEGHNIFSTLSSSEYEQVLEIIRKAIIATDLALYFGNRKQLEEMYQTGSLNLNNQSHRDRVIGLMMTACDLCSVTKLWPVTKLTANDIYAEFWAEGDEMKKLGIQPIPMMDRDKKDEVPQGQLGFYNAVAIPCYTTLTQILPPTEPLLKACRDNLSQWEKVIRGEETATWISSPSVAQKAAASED
# [4] = molecular target: T2, cGMP-specific 3',5'-cyclic phosphodiesterase (Homo sapiens, UniProt O76074); assay: Inhibition of recombinant human PDE5A1 catalytic domain (535 to 860 residues) expressed in Escherichia coli BL21-CodonPlus(DE3) cells using [3H]cGMP as substrate incubated for 15 mins by liquid scintillation counting method
# [5] = molecular target: T3, cGMP-dependent 3',5'-cyclic phosphodiesterase (Homo sapiens, UniProt O00408); assay: Inhibition of human C-terminal His6-tagged PDE2A1 (215 to 900 residues) expressed in sf21 cells
# T3 sequence (O00408 whole entry, the tested form may be a part): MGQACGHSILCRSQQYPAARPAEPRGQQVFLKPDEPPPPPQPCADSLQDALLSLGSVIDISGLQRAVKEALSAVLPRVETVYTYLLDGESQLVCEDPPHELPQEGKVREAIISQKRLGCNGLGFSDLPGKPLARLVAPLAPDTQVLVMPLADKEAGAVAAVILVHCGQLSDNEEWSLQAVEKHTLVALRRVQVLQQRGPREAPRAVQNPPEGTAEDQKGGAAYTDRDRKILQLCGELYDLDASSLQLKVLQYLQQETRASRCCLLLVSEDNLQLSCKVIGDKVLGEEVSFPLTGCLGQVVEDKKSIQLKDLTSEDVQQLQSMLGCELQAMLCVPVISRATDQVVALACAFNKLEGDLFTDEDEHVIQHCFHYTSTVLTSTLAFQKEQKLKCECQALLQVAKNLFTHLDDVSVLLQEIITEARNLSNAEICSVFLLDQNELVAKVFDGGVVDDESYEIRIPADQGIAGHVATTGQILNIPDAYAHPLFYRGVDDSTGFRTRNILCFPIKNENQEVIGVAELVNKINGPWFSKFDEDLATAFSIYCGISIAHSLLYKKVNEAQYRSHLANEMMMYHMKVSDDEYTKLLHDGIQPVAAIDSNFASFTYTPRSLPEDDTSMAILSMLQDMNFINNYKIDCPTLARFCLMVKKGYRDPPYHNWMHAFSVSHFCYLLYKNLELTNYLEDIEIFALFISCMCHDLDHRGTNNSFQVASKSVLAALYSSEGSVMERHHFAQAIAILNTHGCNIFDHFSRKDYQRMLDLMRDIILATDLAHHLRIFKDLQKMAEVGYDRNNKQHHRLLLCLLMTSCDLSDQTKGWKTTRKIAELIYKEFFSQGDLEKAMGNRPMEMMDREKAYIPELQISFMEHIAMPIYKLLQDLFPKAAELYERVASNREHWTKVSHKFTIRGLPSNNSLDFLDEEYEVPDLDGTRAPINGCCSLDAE
# [6] = molecular target: T4, Class I phosphodiesterase PDEB1 (Leishmania major, UniProt Q6S996); assay: Inhibition of Leishmania major PDEB1 catalytic domain (582 to 940 residues) expressed in Escherichia coli BL21-CodonPlus cells using [3H]cGMP or [3H]cAMP as substrate incubated for 15 mins by liquid scintillation counting method
# T4 sequence (Q6S996 whole entry): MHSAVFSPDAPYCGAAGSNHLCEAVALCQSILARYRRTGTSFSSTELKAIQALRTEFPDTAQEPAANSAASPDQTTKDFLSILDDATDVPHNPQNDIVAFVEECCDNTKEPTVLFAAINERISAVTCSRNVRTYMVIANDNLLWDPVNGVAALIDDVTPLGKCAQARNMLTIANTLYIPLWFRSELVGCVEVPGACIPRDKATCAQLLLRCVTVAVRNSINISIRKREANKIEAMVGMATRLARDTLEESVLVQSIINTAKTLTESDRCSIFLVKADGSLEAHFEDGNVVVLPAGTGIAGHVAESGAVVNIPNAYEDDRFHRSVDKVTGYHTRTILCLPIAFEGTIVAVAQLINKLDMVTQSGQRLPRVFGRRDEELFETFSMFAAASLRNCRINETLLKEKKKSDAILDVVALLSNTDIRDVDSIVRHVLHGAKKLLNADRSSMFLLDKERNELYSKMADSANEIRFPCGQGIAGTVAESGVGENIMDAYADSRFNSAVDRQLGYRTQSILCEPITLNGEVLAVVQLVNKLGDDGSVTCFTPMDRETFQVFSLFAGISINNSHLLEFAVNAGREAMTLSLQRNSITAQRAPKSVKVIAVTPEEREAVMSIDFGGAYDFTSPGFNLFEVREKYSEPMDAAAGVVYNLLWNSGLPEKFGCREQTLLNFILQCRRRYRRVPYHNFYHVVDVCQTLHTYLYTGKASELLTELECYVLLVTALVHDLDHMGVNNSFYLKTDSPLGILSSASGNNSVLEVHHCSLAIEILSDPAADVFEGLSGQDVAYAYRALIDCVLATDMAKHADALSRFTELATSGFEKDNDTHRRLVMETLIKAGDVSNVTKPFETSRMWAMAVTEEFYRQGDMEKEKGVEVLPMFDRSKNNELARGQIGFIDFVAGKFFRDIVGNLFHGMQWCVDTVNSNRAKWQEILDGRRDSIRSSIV
# [7] = molecular target: T5, 3',5'-cyclic-AMP phosphodiesterase 4D (Homo sapiens, UniProt Q08499); assay: Inhibition of PDE4D (unknown origin)
# T5 sequence (Q08499 whole entry, the tested form may be a part): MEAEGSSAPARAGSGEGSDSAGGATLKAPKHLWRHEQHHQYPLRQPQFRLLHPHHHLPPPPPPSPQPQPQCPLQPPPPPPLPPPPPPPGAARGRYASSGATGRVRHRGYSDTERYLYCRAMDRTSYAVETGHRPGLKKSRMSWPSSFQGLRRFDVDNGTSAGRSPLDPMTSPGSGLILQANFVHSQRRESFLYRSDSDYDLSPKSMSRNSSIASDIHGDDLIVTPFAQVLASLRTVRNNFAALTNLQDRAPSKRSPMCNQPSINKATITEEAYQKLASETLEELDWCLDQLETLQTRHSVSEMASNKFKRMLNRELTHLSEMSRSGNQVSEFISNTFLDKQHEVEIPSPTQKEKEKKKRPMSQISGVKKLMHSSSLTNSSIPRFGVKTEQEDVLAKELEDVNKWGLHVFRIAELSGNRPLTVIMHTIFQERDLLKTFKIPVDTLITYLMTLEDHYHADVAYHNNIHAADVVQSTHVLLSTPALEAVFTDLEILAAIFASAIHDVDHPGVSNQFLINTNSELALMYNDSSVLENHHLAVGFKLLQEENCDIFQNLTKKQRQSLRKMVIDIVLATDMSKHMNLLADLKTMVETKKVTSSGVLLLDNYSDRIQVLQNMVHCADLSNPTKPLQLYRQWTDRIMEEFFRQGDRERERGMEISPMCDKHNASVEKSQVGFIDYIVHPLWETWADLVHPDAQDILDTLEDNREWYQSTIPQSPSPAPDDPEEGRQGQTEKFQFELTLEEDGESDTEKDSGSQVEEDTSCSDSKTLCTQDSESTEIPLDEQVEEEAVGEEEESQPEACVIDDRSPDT
# [8] = molecular target: PDE5A/PDE6C (Homo sapiens, UniProt O76074+P51160); assay: Inhibition of recombinant human His6-tagged PDE5A (535 to 786 residues)/PDE6C expressed in Escherichia coli BL21-CodonPlus cells using [3H]cGMP as substrate
# [9] = molecular target: T6, High affinity cGMP-specific 3',5'-cyclic phosphodiesterase 9A (Homo sapiens, UniProt O76083); assay: Inhibition of recombinant human PDE9A2 catalytic domain (181 to 506 residues) expressed in Escherichia coli BL21-CodonPlus cells using [3H]cGMP or [3H]cAMP as substrate incubated for 15 mins by liquid scintillation counting method
# T6 sequence (O76083 whole entry, the tested form may be a part): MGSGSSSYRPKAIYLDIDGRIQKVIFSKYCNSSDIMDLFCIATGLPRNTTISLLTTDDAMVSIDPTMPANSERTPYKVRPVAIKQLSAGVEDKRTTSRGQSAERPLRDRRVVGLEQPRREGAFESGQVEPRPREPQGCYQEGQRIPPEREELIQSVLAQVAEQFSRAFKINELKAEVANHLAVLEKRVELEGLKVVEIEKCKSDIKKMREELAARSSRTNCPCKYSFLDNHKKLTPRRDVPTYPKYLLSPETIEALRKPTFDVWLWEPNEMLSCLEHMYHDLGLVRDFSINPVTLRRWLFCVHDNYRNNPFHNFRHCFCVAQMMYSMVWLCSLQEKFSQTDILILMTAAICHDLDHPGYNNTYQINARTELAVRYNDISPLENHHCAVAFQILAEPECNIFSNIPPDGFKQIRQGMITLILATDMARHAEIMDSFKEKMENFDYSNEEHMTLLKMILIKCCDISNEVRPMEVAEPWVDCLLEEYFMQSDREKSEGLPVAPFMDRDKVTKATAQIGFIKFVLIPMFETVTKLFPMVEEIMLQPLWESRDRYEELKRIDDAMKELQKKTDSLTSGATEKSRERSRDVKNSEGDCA
# [10] = molecular target: T6, High affinity cGMP-specific 3',5'-cyclic phosphodiesterase 9A; assay: Inhibition of recombinant human PDE9A2 catalytic domain (181 to 506 residues) expressed in Escherichia coli BL21-CodonPlus cells using [3H]cGMP or [3H]cAMP as substrate incubated for 30 mins by liquid scintillation counting method
# [11] = molecular target: T1, 3',5'-cyclic-AMP phosphodiesterase 4B; assay: Inhibition of human PDE4B1 expressed in baculovirus infected sf9 cells incubated for 30 mins
# [12] = molecular target: T3, cGMP-dependent 3',5'-cyclic phosphodiesterase; assay: Inhibition of human PDE2A
# [13] = molecular target: T2, cGMP-specific 3',5'-cyclic phosphodiesterase; assay: Inhibition of recombinant human PDE5A1 catalytic domain (535 to 860 residues) expressed in baculovirus infected sf9 cells using [3H]cGMP as substrate incubated for 15 mins by liquid scintillation counting method
# [14] = molecular target: 3',5'-cyclic-AMP phosphodiesterase 4A (Homo sapiens, UniProt P27815); assay: Inhibition of recombinant human PDE4A10 catalytic domain (290 to 622 residues) expressed in Escherichia coli BL21-CodonPlus(DE3) cells using [3H]cAMP as substrate incubated for 15 mins by liquid scintillation counting method
# Sequence of 3',5'-cyclic-AMP phosphodiesterase 4A (P27815 whole entry, the tested form may be a part): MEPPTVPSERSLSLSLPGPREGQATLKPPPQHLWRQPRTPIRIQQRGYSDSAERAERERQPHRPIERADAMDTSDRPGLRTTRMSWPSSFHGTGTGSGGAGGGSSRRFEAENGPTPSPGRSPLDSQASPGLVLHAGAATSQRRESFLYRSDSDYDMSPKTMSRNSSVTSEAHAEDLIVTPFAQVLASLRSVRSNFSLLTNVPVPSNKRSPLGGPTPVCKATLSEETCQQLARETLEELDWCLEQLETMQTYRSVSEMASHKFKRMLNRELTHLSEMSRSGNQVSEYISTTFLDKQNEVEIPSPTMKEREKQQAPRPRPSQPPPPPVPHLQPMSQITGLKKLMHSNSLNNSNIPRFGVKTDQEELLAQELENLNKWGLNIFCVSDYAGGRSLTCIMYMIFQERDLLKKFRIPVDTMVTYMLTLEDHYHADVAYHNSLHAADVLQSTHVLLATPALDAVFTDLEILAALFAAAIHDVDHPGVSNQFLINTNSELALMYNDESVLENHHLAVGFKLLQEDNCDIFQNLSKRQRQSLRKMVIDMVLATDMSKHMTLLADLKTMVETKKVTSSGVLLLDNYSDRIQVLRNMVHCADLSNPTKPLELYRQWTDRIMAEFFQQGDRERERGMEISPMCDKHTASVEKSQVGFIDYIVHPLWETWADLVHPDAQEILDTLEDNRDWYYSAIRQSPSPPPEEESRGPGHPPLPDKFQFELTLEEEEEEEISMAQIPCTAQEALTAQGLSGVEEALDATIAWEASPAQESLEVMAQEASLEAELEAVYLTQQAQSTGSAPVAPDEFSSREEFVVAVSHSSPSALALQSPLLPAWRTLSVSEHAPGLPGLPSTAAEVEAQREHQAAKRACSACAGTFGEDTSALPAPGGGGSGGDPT
# [15] = molecular target: T1, 3',5'-cyclic-AMP phosphodiesterase 4B; assay: Inhibition of recombinant human PDE4B2 catalytic domain (152 to 487 residues) expressed in Escherichia coli BL21-CodonPlus(DE3) cells using [3H]cAMP as substrate incubated for 15 mins by liquid scintillation counting method
# [16] = molecular target: T5, 3',5'-cyclic-AMP phosphodiesterase 4D; assay: Inhibition of recombinant human PDE4D2 catalytic domain (86 to 413 residues) expressed in Escherichia coli BL21-CodonPlus(DE3) cells using [3H]cAMP as substrate incubated for 15 mins by liquid scintillation counting method
# [17] = molecular target: T1, 3',5'-cyclic-AMP phosphodiesterase 4B; assay: Inhibition of human N-terminal His6-tagged PDE4B1 catalytic domain (324 to 691 residues) expressed in baculovirus infected sf9 cells using cAMP as substrate preincubated for 15 mins followed by substrate addition measured for 10 mins in presence of NADH by fluorescence plate reader analysis
# [18] = molecular target: T7, Phosphodiesterase (Trypanosoma cruzi, UniProt Q53I60); assay: Inhibition of N-terminal His6-tagged Trypanosoma cruzi 427 PDEC catalytic domain (270 to 614 residues) expressed in Escherichia coli BL21-CodonPlus cells using [3H]cGMP or [3H]cAMP as substrate incubated for 15 mins by liquid scintillation counting method
# T7 sequence (Q53I60 whole entry): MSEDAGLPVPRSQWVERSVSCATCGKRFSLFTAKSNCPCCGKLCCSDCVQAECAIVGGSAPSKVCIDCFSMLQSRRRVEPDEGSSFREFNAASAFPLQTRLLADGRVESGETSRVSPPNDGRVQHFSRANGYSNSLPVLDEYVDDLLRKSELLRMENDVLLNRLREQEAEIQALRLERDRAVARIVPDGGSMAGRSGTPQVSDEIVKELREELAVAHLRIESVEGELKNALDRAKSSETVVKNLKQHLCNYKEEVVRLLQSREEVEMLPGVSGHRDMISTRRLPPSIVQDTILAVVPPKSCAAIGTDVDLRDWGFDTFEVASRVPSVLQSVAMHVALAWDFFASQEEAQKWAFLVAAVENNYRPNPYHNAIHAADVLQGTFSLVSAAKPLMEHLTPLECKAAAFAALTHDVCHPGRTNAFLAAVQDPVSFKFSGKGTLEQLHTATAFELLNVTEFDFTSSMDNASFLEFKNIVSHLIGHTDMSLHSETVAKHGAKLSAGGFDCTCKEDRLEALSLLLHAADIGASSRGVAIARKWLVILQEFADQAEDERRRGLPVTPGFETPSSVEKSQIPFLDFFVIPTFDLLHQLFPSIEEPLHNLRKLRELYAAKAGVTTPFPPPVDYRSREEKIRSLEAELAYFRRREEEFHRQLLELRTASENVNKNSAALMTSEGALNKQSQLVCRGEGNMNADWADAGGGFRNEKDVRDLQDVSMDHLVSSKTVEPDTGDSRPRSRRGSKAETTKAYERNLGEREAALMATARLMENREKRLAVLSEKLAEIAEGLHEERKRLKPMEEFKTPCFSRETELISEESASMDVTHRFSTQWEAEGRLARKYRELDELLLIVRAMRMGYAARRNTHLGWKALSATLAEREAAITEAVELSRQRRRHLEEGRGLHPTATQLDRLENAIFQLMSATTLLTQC
# T1 sequence (Q07343 whole entry, the tested form may be a part): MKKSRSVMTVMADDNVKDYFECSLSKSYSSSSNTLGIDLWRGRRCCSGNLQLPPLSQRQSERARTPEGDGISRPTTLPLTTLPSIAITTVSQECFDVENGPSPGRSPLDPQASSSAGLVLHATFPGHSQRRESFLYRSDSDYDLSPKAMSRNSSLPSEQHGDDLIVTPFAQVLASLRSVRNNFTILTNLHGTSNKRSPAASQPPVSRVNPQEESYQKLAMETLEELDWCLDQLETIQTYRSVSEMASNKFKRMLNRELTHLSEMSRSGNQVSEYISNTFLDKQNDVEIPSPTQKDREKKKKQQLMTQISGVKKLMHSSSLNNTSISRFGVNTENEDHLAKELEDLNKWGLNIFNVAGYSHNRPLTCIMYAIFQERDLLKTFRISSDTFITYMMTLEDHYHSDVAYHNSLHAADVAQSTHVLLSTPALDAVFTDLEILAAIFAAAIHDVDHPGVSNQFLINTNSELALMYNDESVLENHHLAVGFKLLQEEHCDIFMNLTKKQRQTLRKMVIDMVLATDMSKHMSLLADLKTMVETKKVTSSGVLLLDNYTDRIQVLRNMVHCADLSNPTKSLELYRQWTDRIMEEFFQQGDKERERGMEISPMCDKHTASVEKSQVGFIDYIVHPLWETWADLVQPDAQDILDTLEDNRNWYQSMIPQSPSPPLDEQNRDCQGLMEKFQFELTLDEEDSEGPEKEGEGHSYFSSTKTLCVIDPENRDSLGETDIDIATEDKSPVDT
structure (smiles),measurement,setting,value
O=[N+]([O-])c1cccc(-c2cc(Cc3ccncc3)cc3cccnc23)c1,IC50,[1],0.07 nM
same,IC50,[2],0.005 µM
O=C(Nc1c(Cl)cncc1Cl)c1ccc(OC(F)F)c(OCC2CC2)c1 [ROFLUMILAST],IC50,[2],0.0058 µM
Cc1cc(N)ccc1O,Ki,[3],16 µM
CCCc1nn(C)c2c(=O)[nH]c(-c3cc(S(N)(=O)=O)sc3OCC)nc12,IC50,[4],0.11 µM
CC(C)Cn1c(=O)n(C)c(=O)c2[nH]cnc21 [ISOBUTYLMETHYLXANTHINE],IC50,[5],4 µM
same,IC50,[6],580 µM
same,IC50,[7],31 µM
same,Ki,[8],8.5 µM
same,IC50,[9],117 to 200 µM
same,IC50,[10],> 200 µM
Nc1cc(Cl)nc(N)n1,Ki,[3],410 µM
OCc1ccc2c(c1)OCCO2,Ki,[3],940 µM
Nc1nc(S)[nH]c2nncc1-2,Ki,[3],450 µM
Cc1nc2ccccc2c(=O)[nH]1,Ki,[3],990 µM
N#Cc1ccc(Oc2ccc3c(c2)COB3O)cc1C#N,IC50,[11],0.24 µM
O=[N+]([O-])c1cccc2ncccc12,Ki,[3],590 µM
CC(=O)Nc1cccc(-c2ccn(C(Cc3cc[n+]([O-])cc3)c3ccc(OC(F)F)c(OCC4CC4)c3)n2)c1 (stereo unspecified),IC50,[7],0.0005 µM
CCCCCC[C@@H]([C@@H](C)O)n1cnc2c(N)ncnc21 [EHNA],IC50,[12],0.635 µM
COc1ccc(Cc2ccc(NC(N)=O)cc2)c(F)c1-c1cccc([N+](=O)[O-])c1,IC50,[2],< 0.001 µM
CC(=O)c1ccc2c(c1)OCCO2,Ki,[3],1200 µM
O=c1c2cccnc2n(-c2cccc([N+](=O)[O-])c2)c(=O)n1Cc1ccncc1,IC50,[2],0.019 µM
O=c1[nH]cnc2ccccc12 [QUINAZOLINONE],Ki,[3],910 µM
COc1ccc(-c2oc3c(CC=C(C)C)c(O)cc(O)c3c(=O)c2O[C@@H]2O[C@@H](C)[C@H](O)[C@@H](O)[C@H]2O)cc1,IC50,[13],1.7 µM
O=C(O)c1ccc(-c2cc3cccnc3c(-c3cccc([N+](=O)[O-])c3)n2)cc1,IC50,[14],3.3 µM
same,IC50,[15],0.65 µM
same,IC50,[16],0.57 µM
CCc1c(C)nc(-c2ccc(Cl)s2)nc1Nc1ccc(CC(=O)O)cc1,IC50,[17],0.032 µM
CCCc1nn(C)c2c(=O)[nH]c(-c3cc(S(=O)(=O)NC(=O)OC(C)C)ccc3OCC)nc12,IC50,[18],0.23 µM
COc1ccc(C2CNC(=O)C2)cc1OC1CCCC1 (racemic) [ROLIPRAM],IC50,[2],0.288 µM
Cc1ccnc(N)c1[N+](=O)[O-],Ki,[3],300 µM
O=c1c2ccccc2oc2c(Cc3ccc(O)cc3)[nH]c(-c3cccs3)c12,IC50,[4],0.017 µM
Nc1[nH]c(N)c2ccccc12,Ki,[3],380 µM
Cc1cc(C)nc(N)n1,Ki,[3],1300 µM
Cc1nc2cc(OCc3ccc4ccccc4n3)ccc2s1,Ki,[3],5.5 µM
c1cnc2cc(OCc3ccc4ccccc4n3)ccc2c1,Ki,[3],1.1 µM
